Assay results taken from PMC2852139 (Biochemistry, 2010).

Molecular target: T1, Apaf-1 (Homo sapiens, UniProt O14727)
T1 sequence (O14727 1-1248): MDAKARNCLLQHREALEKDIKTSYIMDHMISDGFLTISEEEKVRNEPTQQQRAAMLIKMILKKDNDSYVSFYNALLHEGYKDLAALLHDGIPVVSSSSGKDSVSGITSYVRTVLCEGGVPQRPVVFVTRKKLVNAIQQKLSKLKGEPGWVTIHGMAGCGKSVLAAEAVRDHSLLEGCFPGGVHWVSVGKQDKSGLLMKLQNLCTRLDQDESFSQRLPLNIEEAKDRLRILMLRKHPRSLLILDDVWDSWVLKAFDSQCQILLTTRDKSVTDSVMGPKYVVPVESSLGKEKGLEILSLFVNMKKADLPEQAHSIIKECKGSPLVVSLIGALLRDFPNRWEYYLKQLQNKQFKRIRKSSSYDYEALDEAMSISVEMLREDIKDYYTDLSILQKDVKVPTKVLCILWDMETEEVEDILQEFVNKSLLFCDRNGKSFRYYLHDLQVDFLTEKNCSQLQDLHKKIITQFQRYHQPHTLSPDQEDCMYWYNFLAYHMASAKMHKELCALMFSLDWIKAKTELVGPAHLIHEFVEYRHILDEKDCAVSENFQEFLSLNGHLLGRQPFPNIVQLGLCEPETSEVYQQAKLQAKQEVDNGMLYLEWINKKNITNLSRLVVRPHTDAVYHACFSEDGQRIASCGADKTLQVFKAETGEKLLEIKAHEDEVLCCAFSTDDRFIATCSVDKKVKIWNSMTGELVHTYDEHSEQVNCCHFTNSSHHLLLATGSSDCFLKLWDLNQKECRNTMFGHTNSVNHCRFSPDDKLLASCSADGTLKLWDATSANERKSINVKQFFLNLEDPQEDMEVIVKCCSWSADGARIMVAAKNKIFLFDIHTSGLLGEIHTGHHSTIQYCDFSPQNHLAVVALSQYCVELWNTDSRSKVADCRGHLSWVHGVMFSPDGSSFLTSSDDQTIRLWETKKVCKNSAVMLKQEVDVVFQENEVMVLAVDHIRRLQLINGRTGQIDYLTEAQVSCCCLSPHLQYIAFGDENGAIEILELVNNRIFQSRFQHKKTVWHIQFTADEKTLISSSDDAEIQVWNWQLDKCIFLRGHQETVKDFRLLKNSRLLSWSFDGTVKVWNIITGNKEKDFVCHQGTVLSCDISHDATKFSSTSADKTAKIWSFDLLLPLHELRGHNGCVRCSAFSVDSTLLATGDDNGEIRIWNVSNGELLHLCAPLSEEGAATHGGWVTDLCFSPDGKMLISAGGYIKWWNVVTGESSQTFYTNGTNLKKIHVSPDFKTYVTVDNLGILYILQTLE
T1 sequence (P06454 2-111 partner): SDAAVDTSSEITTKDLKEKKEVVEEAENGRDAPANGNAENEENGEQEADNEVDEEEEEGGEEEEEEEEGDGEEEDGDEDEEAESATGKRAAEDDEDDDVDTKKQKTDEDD
Assay: ELISA and FLAG-IP of recombinant Apaf-1/ProT interaction blocked by BETT
Assay type: biochemical

EC50: ~50 µM
Compound: Sc1nnc(-c2cc3ccccc3o2)n1-c1ccccc1 [BETT, 5-(2-Benzofuryl)-4-phenyl-1,2,4-triazole-3-thiol]
